Measurements reported in US20230102554A1 (GB002, INC., priority 2019, published 2023).

What was measured:
[1] = biological target: T1, Human PDGFRα, cytoplasmic domain (GST-PDGFRα) (Homo sapiens, UniProt P16234); test: Human PDGFRα biochemical inhibition assay (off-chip Mobility Shift Assay)
T1 construct: made in house

[2] = biological target: T2, Human PDGFRβ, cytoplasmic domain (GST-PDGFRβ) (Homo sapiens, UniProt P09619); test: Human PDGFRβ biochemical inhibition assay (off-chip Mobility Shift Assay)
T2 construct: made in house
T2 sequence (P09619 with tags, fused parts or gaps): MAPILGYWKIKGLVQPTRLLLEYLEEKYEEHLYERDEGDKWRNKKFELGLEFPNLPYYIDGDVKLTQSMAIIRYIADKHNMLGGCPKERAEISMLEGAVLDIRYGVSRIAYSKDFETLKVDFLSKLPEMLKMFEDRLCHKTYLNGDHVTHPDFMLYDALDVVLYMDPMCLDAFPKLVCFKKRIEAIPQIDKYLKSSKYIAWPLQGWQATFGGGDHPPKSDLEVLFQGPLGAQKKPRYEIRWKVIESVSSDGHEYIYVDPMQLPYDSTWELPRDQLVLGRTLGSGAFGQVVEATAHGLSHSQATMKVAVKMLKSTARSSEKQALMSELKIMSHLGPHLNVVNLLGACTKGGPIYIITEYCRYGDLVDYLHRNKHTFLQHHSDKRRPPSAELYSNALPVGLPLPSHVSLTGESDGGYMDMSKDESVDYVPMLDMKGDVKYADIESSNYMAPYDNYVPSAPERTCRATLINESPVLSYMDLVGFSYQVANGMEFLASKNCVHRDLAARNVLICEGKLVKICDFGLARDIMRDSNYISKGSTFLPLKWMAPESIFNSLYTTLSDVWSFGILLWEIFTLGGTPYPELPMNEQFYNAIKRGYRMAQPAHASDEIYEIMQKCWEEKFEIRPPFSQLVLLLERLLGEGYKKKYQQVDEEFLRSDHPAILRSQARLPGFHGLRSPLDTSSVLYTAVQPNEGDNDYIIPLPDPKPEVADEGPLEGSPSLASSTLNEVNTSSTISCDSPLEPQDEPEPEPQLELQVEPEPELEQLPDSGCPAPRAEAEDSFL
Protocol: Human PDGFRβ Biochemical Inhibition Assay
The compounds described herein were tested for the ability to inhibit activity of PDGFRβ which was achieved via use of an off-chip Mobility Shift Assay (MSA). Human PDGFRβ, cytoplasmic domain [557-1106 (end) amino acids of accession number NP_002600.1 (SEQ ID NO: 3)] was expressed as N-terminal GST-fusion protein (88 kDa) using baculovirus expression system (SEQ ID NO: 4). GST-PDGFRβ was purified by using glutathione sepharose chromatography. Test compounds were dissolved in and diluted with dimethylsulfoxide (DMSO) to achieve 1 mM concentration. Then the solution was further diluted 25-fold with assay buffer to make the final test compound solution. The reference compound, Staurosporine, used as the assay positive control was prepared similarly. The 4× compound solution/substrate (CSKtide, 1000 nM)/ATP (Km ATP)/Mg Metal (5 mM) was prepared with kit buffer (20 mM HEPES, 0.01% Triton X-100, 5 mM DTT, pH 7.5), and 2× kinase solution was prepared with assay buffer (20 mM HEPES, 0.01% Triton X-100, 1 mM DTT, pH 7.5). The 5 μL of 4× compound solution, […] of 4× Substrate/ATP/Metal solution, and […] of 2× kinase solution were mixed and incubated in a well of polypropylene 384 well microplate for 1 hour at room temperature. […] of Termination Buffer (QuickScout Screening Assist MSA; Carna Biosciences) was added to the well. The reaction mixture was applied to LabChip™ system (Perkin Elmer), and the product and substrate peptide peaks were separated and quantitated. The kinase reaction was evaluated by the product ratio calculated from peak heights of product(P) and substrate(S) peptides (P/(P+S)). The readout value of reaction control (complete reaction mixture) was set as a 0% inhibition, and the readout value of background (Enzyme(−)) was set as a 100% inhibition, then the percent inhibition of each test solution was calculated.
With respect to PDGFRβ activity: “+++” denotes an IC50 of less than 300 nM; “++” denotes an IC50 of from 300 nM to less than 1000 nM; and “+” denotes an IC50 of 1000 nM or more.

T1 sequence (P16234 550-1089 T674I): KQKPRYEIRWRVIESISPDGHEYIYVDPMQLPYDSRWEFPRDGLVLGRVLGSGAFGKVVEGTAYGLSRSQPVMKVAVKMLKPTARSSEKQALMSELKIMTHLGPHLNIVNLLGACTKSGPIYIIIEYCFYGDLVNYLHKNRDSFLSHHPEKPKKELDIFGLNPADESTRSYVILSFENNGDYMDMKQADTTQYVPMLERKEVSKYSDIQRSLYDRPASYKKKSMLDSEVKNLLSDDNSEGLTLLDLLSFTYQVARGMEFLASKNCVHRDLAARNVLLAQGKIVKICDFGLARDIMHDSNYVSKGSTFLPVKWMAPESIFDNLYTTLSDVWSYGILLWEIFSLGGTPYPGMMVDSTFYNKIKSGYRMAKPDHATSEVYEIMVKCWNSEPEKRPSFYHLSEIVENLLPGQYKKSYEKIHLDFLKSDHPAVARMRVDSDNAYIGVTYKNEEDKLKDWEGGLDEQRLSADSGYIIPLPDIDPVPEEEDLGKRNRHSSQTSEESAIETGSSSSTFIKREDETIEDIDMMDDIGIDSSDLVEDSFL

| SMILES | IC50 [1] | IC50 [2] |
| --- | --- | --- |
| Cc1cncc(C(=O)Nc2cccc([C@H](C)Nc3cnc4cnn(-c5ccccn5)c4n3)c2)c1 [Compound 272, (S)-5-methyl-N-(3-(1-((1-(pyridin-2-yl)-1H-pyrazolo[3,4-b]pyrazin-6-yl)amino)ethyl)phenyl)nicotinamide] | < 300 nM | < 300 nM |
| CCn1cc2ncc(N[C@@H](C)c3cc(NC(=O)c4cc(F)c(CN5CC[C@@H](O)C5)c(Cl)c4)ccc3C)nc2n1 [Compound 521, 3-chloro-N-(3-((S)-1-((2-ethyl-2H-pyrazolo[3,4-b]pyrazin-6-yl)amino)ethyl)-4-methylphenyl)-5-fluoro-4-(((R)-3-hydroxypyrrolidin-1-yl)methyl) benzamide] | < 300 nM | < 300 nM |
| CCn1cc2ncc(N[C@@H](C)c3cccc(NC(=O)c4ccc(N5CCN(C(=O)OC(C)(C)C)CC5)nc4)c3)nc2n1 [Compound 378, tert-butyl (S)-4-(5-((3-(1-((2-ethyl-2H-pyrazolo[3,4-b]pyrazin-6-yl)amino)ethyl)phenyl)carbamoyl)pyridin-2-yl) piperazine-1-carboxylate] | < 300 nM | 300 to 1000 nM |
| CCn1cc2ncc(N[C@@H](C)c3cccc(NC(=O)c4cc(F)c(CN5CCCC5)c(Cl)c4)c3)nc2n1 [Compound 488, (S)-3-chloro-N-(3-(1-((2-ethyl-2H-pyrazolo[3,4-b]pyrazin-6-yl)amino)ethyl)phenyl)-5-fluoro-4-(pyrrolidin-1-ylmethyl) benzamide] | < 300 nM | < 300 nM |
| Cc1cncc(C(=O)Nc2cccc([C@H](C)Nc3cnc4cnn(-c5ccccc5)c4n3)c2)c1 [Compound 271, (S)-5-methyl-N-(3-(1-((1-phenyl-1H-pyrazolo[3,4-b]pyrazin-6-yl)amino)ethyl)phenyl)nicotinamide] | < 300 nM | < 300 nM |
| CCn1cc2ncc(N[C@@H](C)c3cccc(NC(=O)c4ccc(CN5CC6CC6C5)c(C)c4)c3)nc2n1 (stereo partly shown) [Compound 477, 4-((3-azabicyclo[3.1.0]hexan-3-yl)methyl)-N-(3-((5)-1-((2-ethyl-2H-pyrazolo[3,4-b]pyrazin-6-yl)amino)ethyl)phenyl)-3-methylbenzamide] | < 300 nM | < 300 nM |
| CCn1cc2ncc(N[C@@H](C)c3cccc(NC(=O)c4ccc(Cn5ccnc5)c(C)c4)c3)nc2n1 [Compound 435, (S)-4-((1H-imidazol-1-yl)methyl)-N-(3-(1-((2-ethyl-2H-pyrazolo[3,4-b]pyrazin-6-yl)amino)ethyl)phenyl)-3-methylbenzamide] | < 300 nM | < 300 nM |
| C[C@H](Nc1cnc2cn[nH]c2n1)c1cccc(NC(=O)c2cncc(C(C)(C)F)c2)c1 [Compound 94, (S)-N-(3-(1-((1H-pyrazolo[3,4-b]pyrazin-6-yl)amino)ethyl)phenyl)-5-(2-fluoropropan-2-yl) nicotinamide] | < 300 nM | < 300 nM |
| CCn1cc2ncc(N[C@@H](C)c3cc(NC(=O)Cc4ccc(C(C)(C)F)cn4)ccc3F)nc2n1 [Compound 683, (S)-N-(3-(1-((2-ethyl-2H-pyrazolo[3,4-b]pyrazin-6-yl)amino)ethyl)-4-fluorophenyl)-2-(5-(2-fluoropropan-2-yl)pyridin-2-yl)acetamide] | 300 to 1000 nM | ≥ 1000 nM |
| Cc1cncc(C(=O)Nc2cccc([C@H](C)Nc3cnc4cnn(C)c4c3)c2)c1 [Compound 89, (S)-5-methyl-N-(3-(1-((1-methyl-1H-pyrazolo[4,3-b]pyridin-6-yl)amino)ethyl)phenyl)nicotinamide] | < 300 nM | 300 to 1000 nM |
| CCn1cc2ncc(N[C@@H](C)c3cccc(NC(=O)c4cnc(N5CCOCC5)c(C)c4)c3)nc2n1 [Compound 358, (S)-N-(3-(1-((2-ethyl-2H-pyrazolo[3,4-b]pyrazin-6-yl)amino)ethyl)phenyl)-5-methyl-6-morpholinonicotinamide] | < 300 nM | < 300 nM |
| CCn1cc2ncc(N[C@@H](C)c3cccc(NC(=O)Cc4cccc(Cl)c4)c3)nc2n1 [Compound 621, (S)-2-(3-chlorophenyl)-N-(3-(1-((2-ethyl-2H-pyrazolo[3,4-b]pyrazin-6-yl)amino)ethyl)phenyl)acetamide] | < 300 nM | < 300 nM |
| CCn1cc2ncc(N[C@@H](C)c3cccc(NC(=O)c4ccc(CN5CC[C@H](O)C5)c(Cl)c4)c3)nc2n1 [Compound 494, 3-chloro-N-(3-((5)-1-((2-ethyl-2H-pyrazolo[3,4-b]pyrazin-6-yl)amino)ethyl)phenyl)-4-(((S)-3-hydroxypyrrolidin-1-yl)methyl) benzamide] | < 300 nM | < 300 nM |
| CCn1cc2ncc(N[C@@H](C)c3cccc(NC(=O)c4ccc(OC(F)F)c(Cl)c4)c3)nc2n1 [Compound 450, (S)-3-chloro-4-(difluoromethoxy)-N-(3-(1-((2-ethyl-2H-pyrazolo[3,4-b]pyrazin-6-yl)amino)ethyl)phenyl)benzamide] | < 300 nM | < 300 nM |
| CCn1cc2ncc(N[C@@H](C)c3cccc(NC(=O)c4ccc(CN5C[C@@H](C)O[C@@H](C)C5)c(C)c4)c3)nc2n1 [Compound 478, 4-(((2S,6R)-2,6-dimethylmorpholino)methyl)-N-(3-((S)-1-((2-ethyl-2H-pyrazolo[3,4-b]pyrazin-6-yl)amino)ethyl)phenyl)-3-methylbenzamide] | < 300 nM | 300 to 1000 nM |
| Cc1cc(C(=O)Nc2cccc([C@H](C)Nc3cnc4cnn(C)c4n3)c2)cnc1F [Compound 192, (S)-6-fluoro-5-methyl-N-(3-(1-((1-methyl-1H-pyrazolo[3,4-b]pyrazin-6-yl)amino)ethyl)phenyl)nicotinamide] | < 300 nM | < 300 nM |
| CCn1cc2ncc(N[C@@H](C)c3cccc(NC(=O)c4ccc(N5CCN(C)CC5)c(Cl)c4)c3)nc2n1 [Compound 361, (S)-3-chloro-N-(3-(1-((2-ethyl-2H-pyrazolo[3,4-b]pyrazin-6-yl)amino)ethyl)phenyl)-4-(4-methylpiperazin-1-yl)benzamide] | < 300 nM | 300 to 1000 nM |
| Cc1cncc(C(=O)Nc2cccc([C@H](C)Nc3cnc4cnn(C5COC5)c4n3)c2)c1 [Compound 179, (S)-5-methyl-N-(3-(1-((1-(oxetan-3-yl)-1H-pyrazolo[3,4-b]pyrazin-6-yl)amino)ethyl)phenyl)nicotinamide] | 300 to 1000 nM | ≥ 1000 nM |
| Cc1cncc(C(=O)Nc2cc(F)cc(C(C)Nc3cnc4cnn(C)c4n3)c2)c1 (stereo not shown) [Compound 170, N-(3-fluoro-5-(1-((1-methyl-1H-pyrazolo[3,4-b]pyrazin-6-yl)amino)ethyl)phenyl)-5-methylnicotinamide] | < 300 nM | 300 to 1000 nM |
| COc1cncc(C(=O)Nc2cccc([C@H](C)Nc3cnc4[nH]cc(-c5cnn(C)c5)c4n3)c2)c1 [Compound 586, (S)-5-methoxy-N-(3-(1-((7-(1-methyl-1H-pyrazol-4-yl)-5H-pyrrolo[2,3-b]pyrazin-2-yl)amino)ethyl)phenyl) nicotinamide] | < 300 nM | < 300 nM |
| CCn1cc2ncc(N[C@@H](C)c3cccc(NC(=O)c4ccc(CN5CC[C@@H](F)C5)c(C)c4)c3)nc2n1 [Compound 469, N-(3-((S)-1-((2-ethyl-2H-pyrazolo[3,4-b]pyrazin-6-yl)amino)ethyl)phenyl)-4-(((R)-3-fluoropyrrolidin-1-yl)methyl)-3-methylbenzamide] | < 300 nM | < 300 nM |
| CCn1cc2ncc(N[C@@H](C)c3cccc(NC(=O)c4ccc(C(F)(F)F)c(Cl)c4)c3)nc2n1 [Compound 438, (S)-3-chloro-N-(3-(1-((2-ethyl-2H-pyrazolo[3,4-b]pyrazin-6-yl)amino)ethyl)phenyl)-4-(trifluoromethyl)benzamide] | < 300 nM | < 300 nM |
| C[C@H](Nc1cnc2cnn(C)c2n1)c1cccc(NC(=O)c2ccc(C(F)F)s2)c1 [Compound 134, (S)-5-(difluoromethyl)-N-(3-(1-((1-methyl-1H-pyrazolo[3,4-b]pyrazin-6-yl)amino)ethyl)phenyl)thiophene-2-carboxamide] | < 300 nM | < 300 nM |
| CCn1cc(C(=O)Nc2cccc([C@H](C)Nc3cnc4[nH]nc(C)c4n3)c2)cn1 [Compound 545, (S)-1-ethyl-N-(3-(1-((3-methyl-1H-pyrazolo[3,4-b]pyrazin-5-yl)amino)ethyl)phenyl)-1H-pyrazole-4-carboxamide] | < 300 nM | < 300 nM |
| CSc1cncc(C(=O)Nc2cccc([C@H](C)Nc3cnc4cnn(C)c4n3)c2)c1 [Compound 225] | – | < 300 nM |
